Test results from the NIST ThermoML archive (doi:10.1016/j.fluid.2008.03.004).

Assays:
[1] = 101 kPa, Liquid; for speed of sound: Sing-around technique in a fixed-path interferometer
[2] = xn = mol fraction of the nth substance listed; conditions: 101 kPa, Liquid; for speed of sound: Sing-around technique in a fixed-path interferometer

Cc1ccc(C)cc1 [1,4-dimethylbenzene]
[1]
Conditions	mass density [kg/m3]	speed of sound [m/s]
288.15 K	865.354	1347.9
290.65 K	863.184	1336.9
293.15 K	861.015	1326.1
295.65 K	858.846	1315.6
298.15 K	856.675	1305.4
300.65 K	854.501	1295.3
303.15 K	852.326	1285.4
305.65 K	850.148	1275.6
308.15 K	847.969	1266.1
310.65 K	845.784	1256.4
313.15 K	843.599	1246.8
315.65 K	841.41	1237.6
318.15 K	839.22	1228.1
320.65 K	837.031	1220.5
323.15 K	834.849	1211

Cc1ccccc1C [1,2-dimethylbenzene] + CCOC(C)(C)C
[2], x2 = 0
Conditions	mass density [kg/m3]	speed of sound [m/s]
288.15 K	883.36	1381.3
290.65 K	881.265	1371.8
293.15 K	879.168	1362.2
295.65 K	877.069	1351.8
298.15 K	874.968	1341.5
300.65 K	872.865	1331.2
303.15 K	870.759	1321
305.65 K	868.65	1310.8
308.15 K	866.538	1300.7
310.65 K	864.422	1290.6
313.15 K	862.302	1280.6
315.65 K	860.179	1270.5
318.15 K	858.054	1260.6
320.65 K	855.927	1250.7
323.15 K	853.803	1240.9

Cc1cccc(C)c1 [1,3-dimethylbenzene]
[1]
Conditions	mass density [kg/m3]	speed of sound [m/s]
288.15 K	868.459	1362.7
290.65 K	866.318	1352.1
293.15 K	864.177	1341.7
295.65 K	862.035	1331.3
298.15 K	859.89	1320.9
300.65 K	857.742	1310.6
303.15 K	855.593	1300.3
305.65 K	853.441	1290
308.15 K	851.282	1279.8
310.65 K	849.122	1269.6
313.15 K	846.958	1259.5
315.65 K	844.792	1249.3
318.15 K	842.622	1239.3
320.65 K	840.452	1229.3
323.15 K	838.289	1219.5

COC(C)(C)C [2-methoxy-2-methylpropane] + Cc1ccccc1C
[2], x1 = 1
Conditions	mass density [kg/m3]	speed of sound [m/s]
288.15 K	744.861	1083.4
290.65 K	742.259	1071.6
293.15 K	739.654	1060
295.65 K	737.036	1048.5
298.15 K	734.406	1036.9
300.65 K	731.766	1025.4
303.15 K	729.112	1013.9
305.65 K	726.444	1002.4
308.15 K	723.763	990.99
310.65 K	721.069	979.62
313.15 K	718.357	968.16
315.65 K	715.636	956.8
318.15 K	712.897	945.54
320.65 K	710.141	934.24
323.15 K	707.381	922.97

CCOC(C)(C)C [2-ethoxy-2-methylpropane]
[1]
Conditions	mass density [kg/m3]	speed of sound [m/s]
288.15 K	744.955	1076.4
290.65 K	742.482	1065.1
293.15 K	739.947	1053.7
295.65 K	737.374	1042.2
298.15 K	734.806	1031
300.65 K	732.225	1019.8
303.15 K	729.647	1008.6
305.65 K	727.038	997.52
308.15 K	724.443	986.39
310.65 K	721.826	975.42
313.15 K	719.179	964.53
315.65 K	716.527	953.54
318.15 K	713.96	942.67
320.65 K	711.25	931.73
323.15 K	708.642	920.73

Cc1ccccc1C [1,2-dimethylbenzene]
[1]
Conditions	mass density [kg/m3]	speed of sound [m/s]
288.15 K	883.36	1381.3
290.65 K	881.265	1371.8
293.15 K	879.168	1362.2
295.65 K	877.069	1351.8
298.15 K	874.968	1341.5
300.65 K	872.865	1331.2
303.15 K	870.759	1321
305.65 K	868.65	1310.8
308.15 K	866.538	1300.7
310.65 K	864.422	1290.6
313.15 K	862.302	1280.6
315.65 K	860.179	1270.5
318.15 K	858.054	1260.6
320.65 K	855.927	1250.7
323.15 K	853.803	1240.9

Cc1ccc(C)cc1 [1,4-dimethylbenzene] + COC(C)(C)C
[2], x2 = 0
Conditions	mass density [kg/m3]	speed of sound [m/s]
288.15 K	865.354	1347.9
290.65 K	863.184	1336.9
293.15 K	861.015	1326.1
295.65 K	858.846	1315.6
298.15 K	856.675	1305.4
300.65 K	854.501	1295.3
303.15 K	852.326	1285.4
305.65 K	850.148	1275.6
308.15 K	847.969	1266.1
310.65 K	845.784	1256.4
313.15 K	843.599	1246.8
315.65 K	841.41	1237.6
318.15 K	839.22	1228.1
320.65 K	837.031	1220.5
323.15 K	834.849	1211

Cc1cccc(C)c1 [1,3-dimethylbenzene] + CCOC(C)(C)C
[2], x2 = 0
Conditions	mass density [kg/m3]	speed of sound [m/s]
288.15 K	868.459	1362.7
290.65 K	866.318	1352.1
293.15 K	864.177	1341.7
295.65 K	862.035	1331.3
298.15 K	859.89	1320.9
300.65 K	857.742	1310.6
303.15 K	855.593	1300.3
305.65 K	853.441	1290
308.15 K	851.282	1279.8
310.65 K	849.122	1269.6
313.15 K	846.958	1259.5
315.65 K	844.792	1249.3
318.15 K	842.622	1239.3
320.65 K	840.452	1229.3
323.15 K	838.289	1219.5

Cc1ccc(C)cc1 [1,4-dimethylbenzene] + CCOC(C)(C)C
[2], x2 = 0
Conditions	mass density [kg/m3]	speed of sound [m/s]
288.15 K	865.354	1347.9
290.65 K	863.184	1336.9
293.15 K	861.015	1326.1
295.65 K	858.846	1315.6
298.15 K	856.675	1305.4
300.65 K	854.501	1295.3
303.15 K	852.326	1285.4
305.65 K	850.148	1275.6
308.15 K	847.969	1266.1
310.65 K	845.784	1256.4
313.15 K	843.599	1246.8
315.65 K	841.41	1237.6
318.15 K	839.22	1228.1
320.65 K	837.031	1220.5
323.15 K	834.849	1211

COC(C)(C)C [2-methoxy-2-methylpropane]
[1]
Conditions	mass density [kg/m3]	speed of sound [m/s]
288.15 K	744.861	1083.4
290.65 K	742.259	1071.6
293.15 K	739.654	1060
295.65 K	737.036	1048.5
298.15 K	734.406	1036.9
300.65 K	731.766	1025.4
303.15 K	729.112	1013.9
305.65 K	726.444	1002.4
308.15 K	723.763	990.99
310.65 K	721.069	979.62
313.15 K	718.357	968.16
315.65 K	715.636	956.8
318.15 K	712.897	945.54
320.65 K	710.141	934.24
323.15 K	707.381	922.97

COC(C)(C)C [2-methoxy-2-methylpropane] + Cc1cccc(C)c1
[2], x1 = 1
Conditions	mass density [kg/m3]	speed of sound [m/s]
288.15 K	744.861	1083.4
290.65 K	742.259	1071.6
293.15 K	739.654	1060
295.65 K	737.036	1048.5
298.15 K	734.406	1036.9
300.65 K	731.766	1025.4
303.15 K	729.112	1013.9
305.65 K	726.444	1002.4
308.15 K	723.763	990.99
310.65 K	721.069	979.62
313.15 K	718.357	968.16
315.65 K	715.636	956.8
318.15 K	712.897	945.54
320.65 K	710.141	934.24
323.15 K	707.381	922.97
